For `NS(=O)(=O)c1cccc(-c2cn(-c3nc(-c4ccc(C(F)(F)F)cc4)cc(C(F)(F)F)n3)cn2)c1`, the melting point amounted to 198 °C.
The figure for `CC1=Nc2c3cc(C(=O)O)nc-3ccn2C1` is 325 to 327 °C; for `Cn1c(C(F)(F)F)cc(=O)n(-c2ccc3snc(C(Cl)Cl)c3c2)c1=O` it is 148 to 149 °C; for `CC(=O)C(C)(C(C)=O)C(C)=O` it is 33 to 35 °C.
Next, `COc1ccccc1C(=O)NCC(=O)N1c2ccccc2N(Cc2ccccc2)C(=O)C2CCCC21` (configuration not stated): 187 to 188 °C; `CN1CC(CCCl)Cc2ncccc2C1=S` (configuration not stated): 110 to 120 °C; `CC(=O)OC1CSC(Oc2ccc(-c3ccc(F)nc3)nc2)C(OC(C)=O)C1OC(C)=O` (configuration not stated): 185 °C.
Turning to `CC(C)(C)OC(=O)NCCCCNC(=O)COc1ccc(Cl)cc1Cl`, the melting point was 107 °C.
The figure for `CCCCOc1cc(C=CC(=O)O)n(Cc2ccc(Cl)cc2Cl)n1` is 176 to 179 °C.
The figure for `Cn1c(=O)c2c(ncn2CCCN2CCN(c3nccnc3Cl)CC2)n(C)c1=O` is 205 to 207 °C; for `CSc1ccc(/C=C(\NC(=O)c2ccc(OCC(C)C)cc2)C(=O)NCCO)cc1` it is 161 to 163 °C.
The figure for `CCOC(=O)C(=Cc1cscc1OC)N=[N+]=[N-]` is 88 to 90 °C; for `C=C1CC2C(CCC3(C)C2CCC3(OC)C(=O)COC(C)=O)C2(C)CCC(=O)C=C12` (configuration not stated) it is 142 to 143 °C.
For the compound `COc1cc(Cl)cnc1N`, the melting point lay within 93 to 94 °C.
Compound `O=C(Nc1cccc2cc(C(=O)N3CCCCC3)[nH]c12)c1cccs1` gave a melting point of 131 to 132 °C.
The compound `Cc1nc(N)nc(N)c1-c1ccc2ccccc2c1` displayed a melting point of 221 to 222 °C.
As to `O=c1[nH]ncc2[nH]c(-c3ccc(OC(F)F)c(OC4CC4)c3)c(Cc3ccccc3)c12`, the melting point fell in the range of 215 to 217 °C.
The figure for `Cc1c(C(=O)O)cnn1-c1c(Cl)cc(C(F)(F)F)cc1Cl` is 187 to 189 °C; for `CC(C)N(O)C(=O)Nc1ccc(S(C)(=O)=O)cc1` it is 163 to 164 °C.
Next, `COC(=O)CC[C@H](NC(=O)c1ccc(C(CO)CCCc2c(N)nc(N)nc2O)cc1)C(=O)OC` (some centres not stated): 104 °C; `Cc1ccc(Cn2c(=O)c3c(N4CCN(C)CC4)cc(Cl)cc3n(Cc3ccccc3)c2=O)o1`: 132 to 136 °C; `Cc1cc2nc(C3(c4ccc(S(N)(=O)=O)cc4)C=C(C(F)(F)F)NN3)sc2cc1F` (configuration not stated): 224 to 225 °C.
`CC(O)(C=Cc1ccc(S(=O)(=O)c2ccccc2)cc1)C(F)(F)F` (configuration not stated) registered a melting point of 94 to 97 °C.
Next, `CN1c2ccc(CC(=O)O)cc2CCC1c1ccccc1` (configuration not stated): 110 to 111 °C; `COc1ccc(-n2c(CC(=O)O)c(C(=O)O)c3cc(Oc4ccc(S(C)(=O)=O)cc4)ccc32)cc1`: 222 °C; `O=[N+]([O-])c1ccc(NS(=O)(=O)c2ccc(Cl)c(Cl)c2)c(Cl)c1`: 199 to 201 °C.
As for `COc1ccc(CC(=O)Nc2cc(Cl)c(Cl)cc2[N+](=O)[O-])cc1`, the melting point lay in the range of 124 to 126 °C.
The figure for `CCc1c(C(N)=O)sc(SC)c1-c1oncc1C` is 93.5 to 94.5 °C.
The figure for `CN(c1cccc2cc(C3=NCC(CC(C)(C)O)S3)[nH]c12)S(=O)(=O)c1cccs1` (configuration not stated) is 156 to 158 °C; for `Cc1nn(-c2ccccn2)c2nc3ccccc3c(C(N)=O)c12` it is above 300 °C.
Consider `CCN1C(=O)C(C)(C)C(=O)N(C)c2cc(CCN(CCn3cc(C)c4oc(C)cc4c3=O)Cc3cnccc3C)ccc21`, for which the melting point lay within 155 to 156 °C.
The figure for `CCc1cn(N=Cc2ccccc2)c(N)n1` is 164 to 167 °C; for `C=C1CCc2c(F)c(F)cc3c(=O)c(C(=O)OCC)cn1c23` it is 272 to 274 °C; for `COc1cc(N=CN(C)C)c(Cl)cc1C(=O)NC1CN2CCC1CC2` (configuration not stated) it is 178 to 180 °C.
The figure for `COc1c2c(c(OC)c(OC)c1OC)CC(C(=O)O)(c1ccc(OCCCC(=O)O)cc1)C2` is 148 to 150 °C; for `CC1CCc2ccc(Cl)c3c(=O)c(C(=O)O)cn1c23` (configuration not stated) it is 220 to 222 °C.
The figure for `Cc1cccc(Sc2nc(C#N)c(C#N)nc2Cl)c1` is 117 to 119 °C.
Regarding `C1=C(c2c[nH]c3ccccc23)CCNC1`, the melting point lay within 185 to 186 °C.
Compound `Clc1ccc(-c2cc(Cl)c3ccccc3n2)cc1` yielded a melting point of 119 to 122 °C.
The figure for `O=C1CCCN1c1cc(-c2ccnc(Nc3cccc(Cl)c3)n2)ccn1` is 165 to 166 °C.
Take `NCC1CN(c2cc(F)c(-c3cccnc3)c(F)c2)C(=O)O1` (configuration not stated): the melting point was 143 to 145 °C.
Next, `Nc1cc(C(=O)O)cc(SCc2ccccc2)c1Oc1ccccc1`: 159 to 161 °C; `Cc1nn(-c2ccc(C(F)(F)F)cn2)cc1CCCOc1cc(CCC(=O)O)n(-c2ccccc2)n1`: 125 to 126 °C.
Compound `CC(=O)C1C(Cl)CC2C3CCC4CC(O)CCC4(C)C3C(=O)CC21C` (configuration not stated) showed a melting point of 226 to 227 °C.
Next, `COC(=O)CN1CC(OC)=CC1=O`: 104 to 106 °C; `C#CCn1cncc1CO`: 91 to 92.5 °C.
The figure for `CN1CCN(Cc2cc(-c3ccc4c(c3)CCO4)nn(CC=Cc3ccc(Cl)cc3)c2=O)CC1` is 112 to 113 °C.
Next, `CC(C)(C)c1cc(C(=O)CCCCOc2ccc(C(=O)C(=O)O)cc2)cc(C(C)(C)C)c1O`: 144 to 145 °C; `C=CCOc1ccc(CC(NC(O)OC(C)(C)C)C(=O)NC(C(=O)NC(C=C)C(=O)OC)C(C)C)cc1` (configuration not stated): 104 to 106 °C; `O=c1[nH]c2cc(Cl)ccc2n(C2CCCCC2)c1=O`: 265 to 266 °C.
As for `Cc1cc2c(c3c1NC(=O)C(C)(C)C3)OC(C)(CN=[N+]=[N-])C2` (configuration not stated), the melting point was 169 to 170 °C.
The figure for `CCCCCCCCCCCCCCCCS(=O)(=O)Nc1cccc(C(=O)CBr)c1` is 92 to 95 °C.
`Cc1cccc(C)c1/N=C1\SCC(=O)N1/N=C/c1ccc(-c2ncn(-c3ccc(OC(F)(F)F)cc3)n2)cc1` came in with a melting point of 209 to 213 °C.
Next, `CC(=O)c1cc(CC2CO2)c(OCCCCC#N)cc1O` (configuration not stated): 86 to 87 °C.
The figure for `COc1ccccc1-c1nc(N)ncc1-c1ccc(=O)n(C)n1` is 225 °C; for `NC(=O)CCCCCCn1cccc1` it is 228 to 233 °C; for `COc1ccc(CCCC(C)=O)cc1S(N)(=O)=O` it is 115 to 116 °C.
For the compound `Cc1ccc(-c2cccc(/C=C/C(=O)Nc3ccc(CN4CCCC(O)C4)cc3)c2)cc1` (configuration not stated), the melting point lay within 132 to 134 °C.
`CCOC(=O)c1ccc(Cc2ccc(O)cc2)cn1` showed a melting point of 153 to 156 °C.
`CCOC(=O)c1cc2c3ccccc3nc(C)n2c1` registered a melting point of 113 to 116 °C.
Turning to `COc1cc(Cl)ncn1`, the melting point lay within 32 to 34 °C.
Next, `Cc1ccsc1C(=O)C[N+](=O)[O-]`: 59 to 61 °C; `Nc1ccccc1Oc1ccccc1C(=O)O`: 150 to 151 °C.
Next, `O=C(C1CCCCC1)N1CC(=S)N2CCCc3ccccc3C2C1` (configuration not stated): 150 to 151 °C; `C#Cc1ccc(-c2c(F)cccc2F)cc1`: 81 to 83 °C.
The figure for `CN1C(=S)C(CCC(=O)O)c2ccccc21` (configuration not stated) is 126 to 128 °C; for `Cc1oc(-c2ccccc2Cl)nc1CCOc1ccc([N+](=O)[O-])cn1` it is 100 to 101 °C.
`O=C1C=NC(c2ccccc2)O1` (configuration not stated) yielded a melting point of 90 °C.
Take `O=C(Cc1noc2ccccc12)N[C@H]1CC[C@H](CCN2CCC(c3cccc4c3CCO4)CC2)CC1`: the melting point was found to be 214 °C.
The figure for `S=C(NCN1CCOCC1)C(CN1CCOCC1)c1ccccn1` (configuration not stated) is 109 to 111 °C; for `COc1cccc(Nc2ccnc(Nc3cc(C)c(OC)c(OC)c3)n2)c1` it is 66 to 68 °C.
`COc1ccc(C(=O)Nc2ccc(C(=O)N3CCOCC3)cc2)cc1C12CC3CC(CC(C3)C1)C2` gave a melting point of 238 to 241 °C.
The compound `O=C(Nc1ccc(C(=O)N2C[C@@H]3CCCN3c3ccccc32)cc1)c1ccccc1-c1ccccc1` returned a melting point of 200 °C.
The figure for `O=C1CC(c2cccc(-c3nc(CCl)co3)c2)=Nc2ccc(-n3cccc3)cc2N1` is 206 to 207 °C.
The figure for `CN(c1ccc(Cl)cc1)S(=O)(=O)c1cn(S(=O)(=O)N(C)C)cn1` is 132 °C; for `O=C(Cn1c(-c2ccc(Cl)cc2)ncc(NC(=O)OCc2ccccc2)c1=O)NC(Cc1ccccc1)C(=O)C(F)(F)F` (configuration not stated) it is 199 to 201 °C.
For the compound `O=C1c2cccc3cc4ccccc4c(c23)C(=O)N1CCCNCCCN1C(=O)c2cccc3cc4ccccc4c(c23)C1=O`, the melting point was 184 °C.
Take `COc1cc2c(cc1Nc1ncc3ccc(-c4ccccc4OC)n3n1)CN(C)C2`: the melting point was 136 to 141 °C.
The figure for `COc1cc(Oc2cccc(C(F)(F)F)c2)nc(C(=O)NC2CC2)c1` is 106 to 109 °C.
The figure for `O=C(NC(c1ccccc1)c1ccccc1)[C@H]1Cc2c([nH]c3ccccc23)CN1` is 191 to 196 °C; for `COc1cc(NC(=O)c2cc(C(C)C)c(C(C)C)s2)ccc1C(=O)O` it is 213 to 214 °C.
Consider `CN(c1c(Cl)ccc2cc(-c3ncc(CO)s3)[nH]c12)S(=O)(=O)c1cccs1`, for which the melting point fell in the range of 214 to 215 °C.
Consider `Oc1ccc2c(c1)CCCC(c1ccccc1)=C2c1ccc(OCCCCCCSCCCC(F)(F)C(F)(F)F)cc1`, for which the melting point came to 166 °C.
As for `COC(=O)c1nc(-c2ccc(Cl)c(OC)c2F)nc2ncn(C)c12`, the melting point is 197 to 198 °C.
For the compound `Cc1c(-c2cn(C)c(=O)c(Nc3ccc(C4C(=O)N(C)CCN4C(=O)OC(C)(C)C)cc3)n2)cccc1N1Cc2cc(C(C)(C)C)sc2C1=O` (configuration not stated), the melting point was in the range of 120 to 123 °C.
Next, `CC(=O)Nc1ccc(-c2cc(-c3c(-c4cccc(C)n4)nc4ccccn34)ccn2)cc1`: 257 °C.
The figure for `CCCCCCCCCCCCCCCCN(c1ccccc1)S(=O)(=O)c1ccc(Nc2cc(=O)n(-c3c(C)cc(Cl)cc3Cl)n2C(=O)OCC)cc1` is 85 °C.

The values are drawn from a melting point compilation (Tetko et al.; mined from patent text by program, amines drawn as free bases though some values may be those of a salt).
